Several values for one entry are separate records, joined by “and”; a condition that tells them apart may be missing. Identical values can stand only once. Counter-ions that a name gives are not always drawn.
Settings: Transpiration method

CC(C)(C)OC(=O)CCC(=O)OC(C)(C)C [di-tert-butyl succinate]
Liquid
Settings | vapor or sublimation pressure
323.2 K | 0.0331 kPa
326.2 K | 0.0419 kPa
331.2 K | 0.0592 kPa
333.2 K | 0.0697 kPa
335.2 K | 0.0817 kPa
337.2 K | 0.0885 kPa
339.2 K | 0.1043 kPa
341.2 K | 0.1198 kPa
343.2 K | 0.1351 kPa
345.2 K | 0.1498 kPa and 0.1534 kPa
347.2 K | 0.1716 kPa
349.2 K | 0.2009 kPa
351.2 K | 0.2187 kPa
353.2 K | 0.2523 kPa
355.2 K | 0.2842 kPa

CC(C)OC(=O)CCCC(=O)OC(C)C [bis(1-methylethyl) pentanedioate]
Liquid
Settings | vapor or sublimation pressure [kPa]
294.5 K | 0.00137
297.5 K | 0.00175
300.5 K | 0.00246
303.4 K | 0.00328
306.4 K | 0.00433
309.5 K | 0.00594
312.5 K | 0.00714
315.5 K | 0.00958
318.6 K | 0.0126
322.7 K | 0.017
324.4 K | 0.0199
327.4 K | 0.0251

CC(C)(C)OC(=O)C(=O)OC(C)(C)C [di-tert-butyl oxalate]
Settings | vapor or sublimation pressure [kPa]
293.8 K, Crystal | 0.00391
296.7 K, Crystal | 0.0058
299.7 K, Crystal | 0.00793
302.7 K, Crystal | 0.0109
305.7 K, Crystal | 0.0154
308.3 K, Crystal | 0.0201
308.8 K, Crystal | 0.0217
311.2 K, Crystal | 0.0276
311.7 K, Crystal | 0.0293
314.2 K, Crystal | 0.0384
314.7 K, Crystal | 0.0405
317.6 K, Crystal | 0.0574
320.7 K, Crystal | 0.0769
323.2 K, Crystal | 0.0956
323.6 K, Crystal | 0.1
326.6 K, Crystal | 0.1313
329.6 K, Crystal | 0.1637
333.2 K, Crystal | 0.2253
333.7 K, Crystal | 0.2468
338.2 K, Crystal | 0.3739
338.6 K, Crystal | 0.3689
345.6 K, Liquid | 0.4066
346.7 K, Liquid | 0.4358
347.6 K, Liquid | 0.4703
348.6 K, Liquid | 0.4816
351.5 K, Liquid | 0.5565
351.7 K, Liquid | 0.5963
352.5 K, Liquid | 0.6078
354.5 K, Liquid | 0.6715
356.5 K, Liquid | 0.7609
357.5 K, Liquid | 0.799
360.7 K, Liquid | 0.9613
361.2 K, Liquid | 1
363.7 K, Liquid | 1.053
366.2 K, Liquid | 1.252
371.2 K, Liquid | 1.638

CC(C)OC(=O)CCC(=O)OC(C)C [bis(1-methylethyl) butanedioate]
Liquid
Settings | vapor or sublimation pressure [kPa]
304.4 K | 0.0113
307.4 K | 0.0147
310.4 K | 0.0186
313.4 K | 0.0236
316.4 K | 0.0301
318.5 K | 0.0352
321.4 K | 0.0448
323.4 K | 0.0527
326.4 K | 0.0651
328.5 K | 0.0749
331.4 K | 0.096
333.3 K | 0.1092

CC(C)OC(=O)CC(=O)OC(C)C [diisopropyl malonate]
Liquid
Settings | vapor or sublimation pressure [kPa]
289.3 K | 0.00784
292.5 K | 0.0105
295.4 K | 0.0139
298.4 K | 0.0172
301.4 K | 0.0228
304.4 K | 0.0293
307.4 K | 0.0375
310.4 K | 0.0471
313.4 K | 0.0581
315.4 K | 0.0688
316.5 K | 0.0757
318.5 K | 0.0862
319.4 K | 0.0965
321.5 K | 0.1068
322.5 K | 0.1138
323.5 K | 0.1282
325.4 K | 0.1468

CC(C)(C)OC(=O)CCCC(=O)OC(C)(C)C [di-tert-butyl glutarate]
Liquid
Settings | vapor or sublimation pressure [kPa]
295.2 K | 0.00104
297.2 K | 0.0013
299.2 K | 0.00157
301.2 K | 0.00187
303.2 K | 0.00231
305.2 K | 0.00276
307.2 K | 0.00334
309.2 K | 0.00393
311.2 K | 0.00471
313.2 K | 0.00581
315.2 K | 0.00674
317.2 K | 0.00801
319.2 K | 0.00909
321.2 K | 0.0104
323.2 K | 0.0123
325.2 K | 0.0152

CC(C)OC(=O)C(=O)OC(C)C [diisopropyl oxalate]
Liquid
Settings | vapor or sublimation pressure [kPa]
287.5 K | 0.0149
290.4 K | 0.0197
293.3 K | 0.0254
297.3 K | 0.035
300.3 K | 0.0452
303.3 K | 0.0576
306.3 K | 0.0712
308.3 K | 0.0846
311.2 K | 0.1081
313.3 K | 0.1266
316.3 K | 0.151
318.4 K | 0.1722
318.5 K | 0.1731
321.2 K | 0.2066
322.4 K | 0.2247
323.6 K | 0.2533
326.4 K | 0.2884
330.5 K | 0.3766

CC(C)(C)OC(=O)CC(=O)OC(C)(C)C [bis(1,1-dimethylethyl) propanedioate]
Liquid
Settings | vapor or sublimation pressure [kPa]
293.7 K | 0.00787
295.7 K | 0.00952
298.6 K | 0.0122
301.7 K | 0.0159
303.6 K | 0.0186
306.6 K | 0.023
308.6 K | 0.0274
310.7 K | 0.0337
312.6 K | 0.0399
315.6 K | 0.0494
317.6 K | 0.055
319.6 K | 0.0663
321.6 K | 0.0714
323.6 K | 0.0845
324.7 K | 0.0934
327.6 K | 0.1125
333.5 K | 0.1828
336.5 K | 0.2131
339.5 K | 0.2702
342.5 K | 0.333
345.5 K | 0.3886

CC(C)(C)OC(=O)CCCCC(=O)OC(C)(C)C [di-tert-butyl adipate]
Liquid
Settings | vapor or sublimation pressure [kPa]
322.6 K | 0.00711
323.4 K | 0.00757
326.2 K | 0.00926
329 K | 0.0113
331.8 K | 0.01428
336 K | 0.01907
338 K | 0.02216
341 K | 0.02859
344 K | 0.03272
346.9 K | 0.04033
349.9 K | 0.0511
352.9 K | 0.06145
355.9 K | 0.07647
358.9 K | 0.09287
361.9 K | 0.1117
362.4 K | 0.1137
362.5 K | 0.1144
366.3 K | 0.1453

Reference: the NIST ThermoML archive (doi:10.1016/j.fluid.2011.07.007)
